Where a SMILES comes first, the peptide text is derived from it.
Key:
[1] = Intravenous pharmacokinetics in cynomolgus monkeys; type: in vivo, cynomolgus monkeys (Macaca fasicularis); details: relative to base sequence SEQ ID NO:5
Experimental: For determining pharmacokinetic properties, an HIV fusion inhibitor peptide or a base sequence from which an HIV fusion inhibitor peptide is derived was dosed intravenously in cynomolgus monkeys (Macaca fasicularis) (other animal models may be used for determining pharmacokinetic properties, as known in the art). At various times post-dose, blood samples were drawn and plasma isolated by centrifugation. Plasma samples were stored frozen until analysis by LC-MS (liquid chromatography/mass spectrometry) in the electrospray, positive-ion mode. An HIV fusion inhibitor or base sequence was eluted from a C18 or C8 HPLC column with a gradient of acetonitrile in a buffer of 10 mM ammonium acetate, pH 6.8. At the time of analysis, plasma samples were deproteinated with either two or three volumes of acetonitrile containing 0.5% formic acid. Duplicate calibration standards in cynomolgus plasma samples were prepared at the same time as the samples and analyzed before and after the samples containing either HIV fusion inhibitor peptide or base sequence. Pharmacokinetic properties were calculated from the plasma concentration-time data using either mono-exponential or bi-exponential mathematical models. Models were derived by non-linear least squares optimization. A 1/C^2 weighting of concentrations was used. […]

[2] = Stability in aqueous solution (PBS), peptide remaining in solution by HPLC; type: physicochemical; details: phosphate-buffered saline (PBS), 10 mg/ml in PBS, about pH 7.3 to 7.5, 37° C., read-out: peptide remaining detectable in solution at 1 week
[3] = tested on: virus isolates (IIIB, 030, 060 and 098); experiment: In vitro resistance selection, geometric mean over isolates; type: cell-based, HIV; details: compared to SEQ ID NO:2
Experimental: Biological properties of the HIV fusion inhibitor peptides provided herein have been compared with other recognized, effective antiviral agents, including SEQ ID NO: 2 (enfuvirtide). In particular, in vitro resistance comparison studies were performed between the novel SEQ ID NO:9 compound of interest and established antiviral agent SEQ ID NO:2, described in detail as follows: MT2 cells were infected with virus isolates (IIIB, 030, 060 and 098) and cultured in increasing concentrations of SEQ ID NO:2 (enfuvirtide) or SEQ ID NO:9 to select for resistance. The initial peptide concentration was approximately 2 times the IC50 of each peptide against the corresponding wild type isolate. Peptide concentrations were maintained by adding fresh peptide every 1-3 days. Cultures were monitored for cytopathic effect (CPE) using standard techniques and when maximal CPE was achieved, a small aliquot of virus was used for subsequent rounds of infection. Peptide concentrations were increased 2 to 4-fold depending on the length of time in culture when compared to the growth rate of wild type virus. During the course of selection, peptide-free virus stocks were also collected. Peptide-free virus stocks were characterized for gp41 genotypic changes by dideoxy sequencing chemistries and phenotypic susceptibility was determined using a cMAGI infectivity assay.

HIV-Res = experiment: Magi-CCR5 infectivity assay, resistant viral isolate; type: cell-based, HIV-1; details: compared to SEQ ID NO:6 / 7
Text: Assessment of biological properties included measurement of antiviral activity against HIV-1 strains. In determining antiviral activity (e.g., one measure being the ability to inhibit transmission of HIV to a target cell) of the HIV fusion inhibitor peptides, an in vitro assay which has been shown, by data generated using peptides derived from the HR regions of HIV gp41, to be predictive of antiviral activity observed in vivo was used. […] These assays score for reduction of infectious virus titer employing the indicator cell lines MAGI or the CCR5 expressing derivative cMAGI. Both cell lines exploit the ability of HIV-1 tat to transactivate the expression of a β-galactosidase reporter gene driven by the HIV-LTR. The β-gal reporter has been modified to localize in the nucleus and can be detected with the X-gal substrate as intense nuclear staining within a few days of infection. […] The number of infected cells for each control and peptide dilution was determined with the CCD-imager, and then the IC50 was calculated (expressed in μg/ml).
Viruses resistant to the antiviral activity of a peptide consisting of a base sequence can be produced using standard laboratory methods. […] The cultures are maintained and monitored until syncytia are present. […] The second round of culture is maintained and monitored for presence of virus resistant to the antiviral activity of the peptide. […]

Row | SMILES | biological half-life, in words [1] | remaining at 168 h, 10 mg/ml [2] [%] | barrier to development of resistance in vitro [3] | resistance profile (activity against the resistant viral isolate Res) (HIV-Res)
1 | CC[C@H](C)[C@H](NC(=O)[C@H](C)NC(=O)[C@H](CCCNC(=N)N)NC(=O)[C@H](CC(=O)O)NC(=O)[C@H](Cc1c[nH]c2ccccc12)NC(=O)[C@H](C)NC(=O)[C@H](CCC(=O)O)NC(=O)[C@H](Cc1c[nH]c2ccccc12)NC(=O)[C@@H](NC(=O)[C@@H](NC(C)=O)[C@@H](C)O)[C@@H](C)O)C(=O)N[C@@H](C)C(=O)N[C@@H](CCC(=O)O)C(=O)N[C@@H](Cc1ccc(O)cc1)C(=O)N[C@@H](C)C(=O)N[C@@H](C)C(=O)N[C@@H](CCCNC(=N)N)C(=O)N[C@H](C(=O)N[C@@H](CCC(=O)O)C(=O)N[C@@H](C)C(=O)N[C@@H](CC(C)C)C(=O)N[C@@H](CC(C)C)C(=O)N[C@@H](CCCNC(=N)N)C(=O)N[C@@H](C)C(=O)N[C@@H](CC(C)C)C(=O)N[C@@H](CCC(N)=O)C(=O)N[C@@H](CCC(=O)O)C(=O)N[C@@H](CCC(N)=O)C(=O)N[C@@H](CCC(N)=O)C(=O)N[C@@H](CCC(=O)O)C(=O)N[C@@H](CCCCN)C(=O)N[C@@H](CC(N)=O)C(=O)N[C@@H](CCC(=O)O)C(=O)N[C@@H](C)C(=O)N[C@@H](C)C(=O)N[C@@H](CC(C)C)C(=O)N[C@@H](CCCNC(=N)N)C(=O)N[C@@H](CCC(=O)O)C(=O)N[C@@H](CC(C)C)C(N)=O)[C@@H](C)CC [compound 9] (Ac-TTWEAWDRAIAEYAARIEALLRALQEQQEKNEAALREL-NH2) | increased biological half-life | ≥ 90 | higher barrier to development of resistance | good resistance profile
2 | CC[C@H](C)[C@H](NC(=O)[C@H](C)NC(=O)[C@H](CCCNC(=N)N)NC(=O)[C@H](CC(=O)O)NC(=O)[C@H](Cc1c[nH]c2ccccc12)NC(=O)[C@H](C)NC(=O)[C@H](CCC(=O)O)NC(=O)[C@H](Cc1c[nH]c2ccccc12)NC(=O)[C@@H](NC(=O)[C@@H](NC(C)=O)[C@@H](C)O)[C@@H](C)O)C(=O)N[C@@H](C)C(=O)N[C@@H](CCC(=O)O)C(=O)N[C@@H](Cc1ccc(O)cc1)C(=O)N[C@@H](C)C(=O)N[C@@H](C)C(=O)N[C@@H](CCCNC(=N)N)C(=O)N[C@H](C(=O)N[C@@H](CCC(=O)O)C(=O)N[C@@H](C)C(=O)N[C@@H](CC(C)C)C(=O)N[C@@H](CC(C)C)C(=O)N[C@@H](CCCNC(=N)N)C(=O)N[C@@H](C)C(=O)N[C@@H](C)C(=O)N[C@@H](CCC(N)=O)C(=O)N[C@@H](CCC(=O)O)C(=O)N[C@@H](CCC(N)=O)C(=O)N[C@@H](CCC(N)=O)C(=O)N[C@@H](CCC(=O)O)C(=O)N[C@@H](CCCCN)C(=O)N[C@@H](CC(C)C)C(=O)N[C@@H](CCC(=O)O)C(=O)N[C@@H](C)C(=O)N[C@@H](C)C(=O)N[C@@H](CC(C)C)C(=O)N[C@@H](CCCNC(=N)N)C(=O)N[C@@H](CCC(=O)O)C(=O)N[C@@H](CC(C)C)C(N)=O)[C@@H](C)CC [compound 10] (Ac-TTWEAWDRAIAEYAARIEALLRAAQEQQEKLEAALREL-NH2) | increased biological half-life | – | – | good resistance profile

From patent US20100261876A1, “NOVEL METHODS OF […] FOR T[…] PEPTIDES” (priority 2007, published 2010)
